From article PMC6882465, “Towards discovery of new leishmanicidal scaffolds able to inhibit Leishmania GSK-3” (Journal of Enzyme Inhibition and Medicinal Chemistry, 2019)
Like-named read-outs stand apart in the source and are kept apart here.

What was measured:
[1] = target: T1, LdGSK-3 (Leishmania donovani, UniProt A6N857); design: method as in PMID 19445946; details: cited from earlier work
[2] = target: T1, LdGSK-3; test: Inhibition of LdGSK-3 with Kinase Glo; format: biochemical; details: for LdGSK-3 % inhibition: @10 µM
Procedure: Assessment of inhibition of LdGSK-3 with Kinase Glo^TM
The reaction was allowed to proceed for 30 min at 30 °C, then it was incubated at room temperature for another 10 min after addition of Kinase Glo reagents (Promega, Ref. V6712). ATP consumption by LdGSK-3 was measured indirectly through end-point luminescence measurement of each well in a Varioskan Flash microplate reader (Thermo).

[3] = test system: L. infantum promastigotes; test: Leishmanicidal assay on promastigotes (inhibition of MTT reduction); format: cell-based, Leishmania infantum; details: 72 h
Procedure: (§1) Leishmania parasites were resuspended with the corresponding drug concentration at 2 × 10^6 parasites/mL (final concentration) in their respective growth media in 96 microwell plates (200 µL/well). The parasites were allowed to growth for 72 h at 26 °C for promastigotes and 96 h at 32 °C for axenic amastigotes. Afterwards, inhibition of proliferation was measured by the inhibition of MTT reduction by the parasites. […] MTT reduction was allowed to proceed for 2 h at the respective temperature, and the resulting formazan solubilised by addition of 50 µL/well of 10% SDS. Afterwards, the plate was read at 595 nm in a BioRad Microplate-reader, model 680. Samples were made by triplicate and assays were repeated at least twice.

[4] = test system: L. pifanoi axenic amastigotes; test: Leishmanicidal assay on axenic amastigotes (inhibition of MTT reduction); format: cell-based, Leishmania pifanoi; details: 96 h, read-out: L. pifanoi amast. ax EC50
Procedure: as §1

[5] = test system: peritoneal murine macrophages (PMM); test: Cytotoxicity on peritoneal murine macrophages (MTT); format: cell-based, Balb/c mice; details: 48 h
Procedure: Peritoneal murine macrophages were obtained from 8-week-old Balb/c mice previously elicited by i.p. injection with 1 mL of 10% thioglycollate medium three days prior to extraction. Macrophages were obtained by peritoneal washing (10 mL PBS, 4 °C). After extraction, macrophages were maintained in RPMI 1640-HIFCS at 37 °C and 5% CO2.
For peritoneal macrophages, the cells were seeded in 96 microwell plates at 1 × 10^5 cells/well and incubated (37 °C, 5% CO2) with the drug for 48 h. The toxicity was evaluated by the inhibition of MTT reduction as above.

[6] = target: T2, hGSK-3β (Homo sapiens, UniProt P49841); details: Table S1, cited from earlier work
T2 sequence (P49841 whole entry): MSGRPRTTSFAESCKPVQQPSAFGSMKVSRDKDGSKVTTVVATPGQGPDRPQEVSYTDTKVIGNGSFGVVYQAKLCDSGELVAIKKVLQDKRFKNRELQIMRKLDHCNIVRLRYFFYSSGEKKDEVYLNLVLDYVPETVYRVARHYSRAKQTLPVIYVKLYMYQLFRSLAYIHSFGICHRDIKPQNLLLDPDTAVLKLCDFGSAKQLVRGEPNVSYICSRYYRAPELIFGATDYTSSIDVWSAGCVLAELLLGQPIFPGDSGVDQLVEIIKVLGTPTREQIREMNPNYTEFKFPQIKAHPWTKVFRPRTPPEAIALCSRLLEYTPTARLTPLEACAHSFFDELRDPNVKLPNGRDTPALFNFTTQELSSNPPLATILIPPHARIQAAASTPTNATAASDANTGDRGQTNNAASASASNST

[7] = target: T2, hGSK-3β; test: hGSK-3β inhibition; format: biochemical
[8] = Table S1, read-out: LdGSK-3 IC50

T1 sequence (A6N857 entry or part of it): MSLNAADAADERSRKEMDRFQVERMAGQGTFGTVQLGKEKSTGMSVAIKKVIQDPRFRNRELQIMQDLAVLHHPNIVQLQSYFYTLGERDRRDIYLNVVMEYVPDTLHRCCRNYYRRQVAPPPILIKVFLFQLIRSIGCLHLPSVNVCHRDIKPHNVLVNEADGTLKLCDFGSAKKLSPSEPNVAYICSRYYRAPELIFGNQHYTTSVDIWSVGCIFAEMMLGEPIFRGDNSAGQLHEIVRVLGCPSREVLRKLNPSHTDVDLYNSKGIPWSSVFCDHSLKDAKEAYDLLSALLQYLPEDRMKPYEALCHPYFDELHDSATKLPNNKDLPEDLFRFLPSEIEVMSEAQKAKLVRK

| SMILES | EC50 ([3]; Table S1) | EC50 ([4]; Table S1) | EC50 ([5]; Table S1) | LdGSK-3 % inhibition ([2]; Table S1) | IC50 ([7]; Table S1, reference not given) | also measured |
| --- | --- | --- | --- | --- | --- | --- |
| Cc1cc2c(cc1Br)NC(=O)C2=C1Nc2ccccc2C1=NO [6-bromo-5-methylindirubin-3'-oxime] |  |  |  |  |  | LdGSK-3 inhibition (in words) [1]: inhibited |
| O=c1sn(-c2cccc3ccccc23)c(=O)n1Cc1ccccc1 [Compound 2, tideglusib] |  |  |  |  |  | IC50 [2]: 0.32 ± 0.05 µM; EC50 ([3]; Leishmania infantum, Table 1): 17.6 ± 2.3 µM; EC50 ([4]; Leishmania pifanoi, Table 1): 7.1 ± 1.8 µM; EC50 ([5]; Mus musculus, Macrophage, Table 1): > 50 µM |
| O=C(CCl)c1ccc(Br)s1 [Compound 6] | 0.9 ± 0.1 µM | 1.7 ± 0.1 µM | 6.8 ± 0.4 µM |  |  | IC50 [2, 8]: 12.5 ± 2.4 µM; IC50 ([6]; ref 4 (supplement)): 10 µM |
| O=C(CCl)c1ccc(Cl)cc1 [Compound 7] | 6.6 ± 0.5 µM | 0.5 ± 0.1 µM | 7.3 ± 1 µM |  |  | IC50 [2, 8]: 7.5 ± 1.4 µM |
| O=C(CCl)c1cc(Cl)sc1Cl [Compound 8] | 4.4 ± 0.1 µM | 2.4 ± 0.4 µM | 3.6 ± 0.5 µM |  |  | IC50 [2, 8]: 10.3 ± 2 µM; IC50 ([6]; ref 4 (supplement)): 5 µM |
| O=C(CCl)c1cc(Br)c(Br)s1 [Compound 10] | 8.6 ± 0.3 µM | 1.2 ± 0.2 µM | 7.9 ± 0.6 µM |  |  | IC50 [2, 8]: 3 ± 0.4 µM |
| CCCCCCCC(=O)NNC(=O)c1c(O)c2ccccc2n(C)c1=O [Compound 12] | > 50 µM | 20.8 µM |  | < 20% |  | IC50 ([6]; ref 7 (supplement)): 8.7 ± 0.4 µM |
| O=C(CBr)C1=C(c2c[nH]c3ccccc23)C(=O)NC1=O [Compound 15] | > 50 µM | > 50 µM |  |  |  | IC50 [2, 8]: 17.7 ± 2.7 µM; IC50 ([6]; ref 8 (supplement)): 0.047 ± 0.007 µM |
| CC(=O)C1=C(c2c[nH]c3ccccc23)C(=O)NC1=O [Compound 16] | > 50 µM | 2.5 ± 2.7 µM | > 50 µM | < 20% |  | IC50 ([6]; ref 8 (supplement)): 4.47 ± 0.35 µM |
| COc1ccc(-n2cnc3cc(C(=O)CBr)ccc32)cc1 [Compound 17] | 3.4 ± 0.5 µM | 4.5 ± 0.2 µM | > 25 µM | 35.5% |  | IC50 ([6]; ref 8 (supplement)): 0.58 ± 0.07 µM |
| COc1ccc(CNC(=O)Nc2nc(C)c(C(=O)CBr)s2)cc1 [Compound 19] | > 25 µM | 14.4 ± 2.6 µM | 32 ± 3.1 µM | < 20% | 9.72 ± 0.57 µM |  |
| COc1ccc(CNC(=O)Nc2nc(C)c(C(=O)C(Br)Br)s2)cc1 [Compound 20] | > 50 µM | > 50 µM |  | < 20% | 6.22 ± 0.2 µM |  |
| CCOC(=O)c1sc(NC(=O)CCc2cccc(Cl)c2)nc1C [Compound 21] | > 50 µM | > 50 µM |  | < 20% | 7.23 ± 0.26 µM |  |
| CCOC(=O)c1sc(NC(=O)CCc2cc(OC)c(OC)c(OC)c2)nc1C [Compound 22] | > 50 µM | > 50 µM |  | < 20% | 7.04 ± 0.27 µM |  |
| O=C(Cc1cccc(Cl)c1)Nc1nc2ccc(C(F)(F)F)cc2s1 [Compound 23] | > 50 µM | > 50 µM |  | < 20% | 9.75 ± 0.26 µM |  |
| COc1cccc(CC(=O)Nc2nc3ccc(OC)cc3s2)c1 [Compound 24] | > 50 µM | > 50 µM |  | < 20% | 7.33 ± 0.15 µM |  |
| CC(=O)Nc1ccc(-c2cnc(N)c(-c3nc4ccc(F)cc4[nH]3)c2)cc1 [Compound 187] |  |  |  |  |  | IC50 ([7]; Table 2): 1.22 ± 0.43 µM; IC50 ([2]; Table 2, read-out: LdGSK-3 IC50): 9.1 µM; % inhibition @ 10µM (initial screening on LdGSK3) ([2]; Table S2, 10 µM): 67.81±1.17%; percentage of inhibition of LdGSK-3 ([2]; assayed at 10 µM): higher than 50% |
